Source: article PMC13021292, “Safety, tolerability and pharmacokinetics of DNDI‐6148, a novel agent for leishmaniasis: A randomized, controlled, single ascending dose study in healthy participants” (British Journal of Clinical Pharmacology, 2025)

How the values were obtained:
[1] = set-up: method as in unpublished data; details: non‐clinical studies ref unpublished data; cited from earlier work
[2] = Plasma CRP and TNFα pre- and post-dose (exploratory inflammation markers); format: in vivo, human; set-up: CRP plasma concentration, Mean / TNFα plasma concentration, Mean: unit not given here; details: for CRP change from pre-dose, Mean / CRP change from pre-dose, Median / CRP plasma concentration, Mean / CRP plasma concentration, Median / TNFα change from pre-dose, Mean / TNFα plasma concentration, Mean / TNFα plasma concentration, Median / TNFα change from pre-dose, Median: 6 h post-dose (D1-T6H)
Description: Recruitment was temporarily interrupted on 16 March 2020 due to confinement measures related to the COVID‐19 outbreak in France. The study resumed on 17 August 2020, allowing for the completion of recruitment for cohorts 2, 3 and 4. Additionally, four participants were included in cohort 5 before suspension of the investigational product (IP) administration on 30 January 2021 as a precaution to assess emerging unexpected data in a non‐clinical Fertility and Early Embryonic Development study. The protocol was further amended to include evaluation of plasma concentrations of C‐reactive protein (CRP) and of tumour necrosis factor alpha (TNFα) pre and post‐dose (6 h) as exploratory markers of possible inflammation. Subsequent cohorts were completed up to the 380 mg dose level (cohort 8) without further interruption of the study.
Exploratory endpoints included ECG parameters compared to baseline and placebo; the exploratory identification of DNDI‐6148 metabolites; and, for the last four participants of the 160 mg cohort and the 220 mg, 300 mg and 380 mg cohorts, the exploratory evaluation of plasma concentrations of CRP and TNFα pre‐ and post‐dose.
(§1) Safety was assessed by monitoring AEs throughout the study. Other safety monitoring included 12‐lead ECG recordings, measurement of vital signs, physical and neurological examinations, haematology, blood biochemistry and urinalysis and, for the last four participants of the 160 mg cohort and onwards, CRP and TNFα.

[3] = Safety and tolerability (adverse events), single ascending oral dose study; format: in vivo, human
Experimental: The primary endpoint was assessment of the safety and tolerability of DNDI‐6148 by evaluation of the following parameters: adverse events (AEs), physical examination (including body weight), clinical neurological examination, vital signs, 12‐lead ECG, clinical laboratory (including serum chemistry, haematology, hormonology and urinalysis) and psychological and cognitive examinations.
as §1
To minimize risk, participants were dosed sequentially, using sentinels in each cohort (one receiving DNDI‐6148, one placebo), as per European Medicines Agency guidelines.[12] Stopping criteria used in that study are described in Supplementary Information, Text S2. If the previous dose was well tolerated, with no safety concerns, the Safety Review Committee decided on dose escalation after reviewing blinded safety and PK data from all available cohorts.

In the case of Cc1c(C(=O)Nc2ccc3c(c2)B(O)OC3)nnn1-c1ccccn1 [DNDI‐6148], the “blood–brain barrier crossing” value [1] is given as “cross the blood–brain barrier”, the “CRP change from pre-dose, Mean” value ([2]; 160 mg, n 3) is given as -0.03 and the “CRP change from pre-dose, Median” value ([2]; 160 mg, n 3) is given as 0.00. For the same molecule, the “CRP plasma concentration, Mean” value ([2]; 160 mg, n 3) was 0.80, the “CRP plasma concentration, Median” value ([2]; 160 mg, n 3) was 0.60 and the “TNFα change from pre-dose, Mean” value ([2]; 160 mg, n 3) was 0.15. The “TNFα plasma concentration, Mean” value ([2]; 160 mg, n 3) was 2.55, the “TNFα plasma concentration, Median” value ([2]; 160 mg, n 3) was 2.58 and the “CRP change from pre-dose, Mean” value ([2]; 220 mg, n 6) was -0.03. For the same molecule, the “CRP change from pre-dose, Median” value ([2]; 220 mg, n 6) was 0.00, the “CRP plasma concentration, Mean” value ([2]; 220 mg, n 6) was 0.72 and the “CRP plasma concentration, Median” value ([2]; 220 mg, n 6) was 0.60. The “TNFα change from pre-dose, Mean” value ([2]; 220 mg, n 6) was -19.68, the “TNFα change from pre-dose, Median” value ([2]; 220 mg, n 6) was -15.26 and the “TNFα plasma concentration, Mean” value ([2]; 220 mg, n 6) was 1.77. For the same molecule, the “TNFα plasma concentration, Median” value ([2]; 220 mg, n 6) was 1.74, the “CRP change from pre-dose, Mean” value ([2]; 300 mg, n 6) was -0.13 and the “CRP change from pre-dose, Median” value ([2]; 300 mg, n 6) was -0.15. For the same molecule, the “CRP plasma concentration, Mean” value ([2]; 300 mg, n 6) was 2.47, the “CRP plasma concentration, Median” value ([2]; 300 mg, n 6) was 1.15 and the “TNFα change from pre-dose, Mean” value ([2]; 300 mg, n 6) was -0.37. For the same molecule, the “TNFα change from pre-dose, Median” value ([2]; 300 mg, n 6) was 0.18, the “TNFα plasma concentration, Mean” value ([2]; 300 mg, n 6) was 2.67 and the “TNFα plasma concentration, Median” value ([2]; 300 mg, n 6) was 2.62. The “TNFα change from pre-dose, Mean” value ([2]; 380 mg, n 4) was 0.33, the “TNFα change from pre-dose, Median” value ([2]; 380 mg, n 4) was 0.32 and the “TNFα plasma concentration, Mean” value ([2]; 380 mg, n 4) was 2.82. For the same molecule, the “TNFα plasma concentration, Median” value ([2]; 380 mg, n 4) was 2.75, the “CRP change from pre-dose, Mean” value ([2]; 380 mg, n 6) was -0.02 and the “CRP change from pre-dose, Median” value ([2]; 380 mg, n 6) was 0.00. The “CRP plasma concentration, Mean” value ([2]; 380 mg, n 6) was 0.87, the “CRP plasma concentration, Median” value ([2]; 380 mg, n 6) was 0.60 and the “plasma CRP and TNFα concentrations post‐dose compared with pre‐dose” value ([2]; last four participants of 160 mg cohort and 220–380 mg cohorts) was “not significantly increased”. The “TEAE Musculoskeletal and connective tissue disorders, participants n (%) [events]” value ([3]; 10 mg (N = 6)) was 0, the “TEAE Musculoskeletal and connective tissue disorders, participants n (%) [events]” value ([3]; 80 mg (N = 6)) was 0 and the “TEAE Musculoskeletal and connective tissue disorders, participants n (%) [events]” value ([3]; 160 mg (N = 6)) was 0. For the same molecule, the “TEAE Musculoskeletal and connective tissue disorders, participants n (%) [events]” value ([3]; 220 mg (N = 6)) was 0, the “TEAE Musculoskeletal and connective tissue disorders, participants n (%) [events]” value ([3]; 380 mg (N = 6)) was 0 and the “TEAEs (events)” value ([3]; in vivo) was 10. The “participants with TEAEs” value ([3]; in vivo) was 8, the “participants with TEAEs, percentage” value ([3]; in vivo) was 14.3% and the maximal tolerated dose ([3]; single doses 10–380 mg) was “not reached”.
